Test system: Nestin tv-a derived DIPG
Assay: Cell viability reference control (dasatinib)
Type: cell-based
Conditions: four parameter logistic standard curve regression, R^2=0.972

Cc1nc(Nc2ncc(C(=O)Nc3c(C)cccc3Cl)s2)cc(N2CCN(CCO)CC2)n1 [dasatinib]
IC50: 0.019 ± 0.02 µM

Reference: US20250041463A1, “FLUORINE-18 LABELED COMPOSITIONS AND THEIR USE IN IMAGING OF BIOLOGICAL TISSUE” (CORNELL UNIVERSITY, priority 2018, published 2025)
